Laboratory results: US7026305B2, “Anti-HIV agents with dual sites of action” (Meharry Medical College, priority 2003, dated 2006)
Where two headings read alike, the source gives them in different places.

Legend:
Assay type in all cases: cell-based
[1] = system: FH-R: DSB resistant HIV-1 strain; assay: Anti-HIV activity against DSB resistant HIV-1 strain (FIG. 2)
Excerpt: (§1) (PI-R: A multiple HIV-1 protease inhibitor resistant strain. FH-R: DSB resistant HIV-1 strain. FH=DSB).
(§2) FIG. 2 graphically illustrates that multiple protease inhibitor resistant strains of HIV-1 and DSB resistant HIV-1 are sensitive to Compound 12 (LH55-1). PI-R indicates a multiple HIV-1 protease inhibitor resistant strain of HIV-1, and FH-R indicates a DSB resistant HIV-1 strain (FH=DSB).

[2] = system: PI-R: A multiple HIV-1 protease inhibitor resistant strain; assay: Anti-HIV activity against multiple protease inhibitor resistant HIV-1 strain (FIG. 1, FIG. 2)
Excerpt: (§3) FIG. 1: Anti-HIV activity of N-[3-β-O-(3′,3′-dimethylsuccinyl)-lup-20(29)-en-28-oyl]-11-aminoundecanoic acid (LH 55-1). PI-R: A multiple HIV-1 protease inhibitor resistant strain. RT-R: A multiple HIV-1 reverse transcriptase inhibitor resistant strain. NL4-3: A T-cell line adapted HIV-1 strain. NL4-3/AZT: The effect of the 1st anti-HIV drug AZT on the NL4-3 virus.
as §1
(§4) FIG. 1 graphically illustrates the anti-HIV activity of Compound 12 (also called compound LH 55-1). In FIG. 1, PI-R represents a multiple HIV-1 protease inhibitor resistant strain of HIV-1. RT-R represents a multiple HIV-1 reverse transcriptase inhibitor resistant strain of HIV-1; NL4-3 represents a T-cell line adapted HIV-1 strain; and NL4-3/AZT represents the effect of AZT on the NL4-3 virus.
as §2

[3] = system: HIV-1 envelope-mediated membrane fusion (COS cells expressing NL4-3 envelope glycoproteins and Hela cells expressing CD4 and CXCR4); assay: Cell-cell fusion assay (HIV-1 entry, FIG. 3)
Experimental: FIG. 3. LH55-1 (compound 12) and compound 9 inhibit HIV-1 entry. Fusion between COS cells expressing NL4-3 envelope glycoproteins and Hela cells expressing CD4 and CXCR4 were performed in the presence of compound 9, 12 and T20 as indicated in the figure.
To determine the mechanisms of action, the ability of LH55-1 and compound 9 to inhibit HIV-1 entry were analyzed by using a cell-cell fusion assay. Inhibition of HIV-1 envelope-mediated membrane fusion will prevent HIV-1 from entering into the cells. […] T20 is a polypeptide fusion inhibitor recently approved for anti-HIV-1 therapy by FDA, USA.

[4] = system: HIV-1 maturation (processing of P25 into p24); assay: Inhibition of viral maturation, Western blot of viral particles from ACH-2 cells (FIG. 4)
Excerpt: FIG. 4. LH55-1 (compound 12) inhibits HIV-1 maturation. HIV-1 viral particles produced from ACH-2 cells in the absence (A) or presence (B) of LH55-1. The collected viral samples were lysed and analyzed by using a Western blot. The primary antibody used for the Western blot is a HIV-1 positive human serum. Mw: Molecular weight standards.
P24 is the capsid protein of HIV-1 and is essential for viral infectivity. P25 is the precursor of p24. Inhibition of the processing of P25 into p24 will result in an immature viral particle without infectivity. […] Further studies in our laboratory indicate that the amino acids at the C-terminus of P24 are critical determinant for the drug sensitivity. The anti-HIV-1 maturation activity of LH55-1 is different from that of HIV-1 protease inhibitors since maturation of other HIV-1 gag proteins such as P17 in not affected by LH55-1.

[5] = system: RT-R: A multiple HIV-1 reverse transcriptase inhibitor resistant strain; assay: Anti-HIV activity against multiple reverse transcriptase inhibitor resistant HIV-1 strain (FIG. 1)
Excerpt: as §3, §4

Structure (SMILES) | sensitivity of virus to compound [1] | anti-HIV activity / sensitivity of virus to compound [2] | anti-HIV-1 entry activity [3] | maturation of other HIV-1 gag proteins such as P17 [4] | processing of P25 into p24 (virion maturation) ([4]; viral particles from ACH-2 cells) | concentration blocking HIV-1 envelope-mediated membrane fusion [3] | sensitivity of virus to compound ([1]; listed as LH55-1) | anti-HIV activity [5] | anti-HIV activity / sensitivity of virus to compound ([2]; listed as Compound 12) | anti-HIV activity / sensitivity of virus to compound ([2]; listed as LH55-1)
C=C(C)C1CC[C@]2(C(=O)O)CC[C@]3(C)[C@H](CCC4[C@@]5(C)CCC(OC(=O)CC(C)(C)C(=O)O)C(C)(C)[C@@H]5CC[C@]43C)[C@@H]12 (stereo partly shown) [DSB, reference compound] | resistant | resistant | – | – | – | – | – | – | – | –
C=C(C)[C@@H]1CC[C@]2(C(=O)NC(CC(C)C)C(=O)O)CC[C@]3(C)[C@H](CCC4[C@@]5(C)CC[C@H](OC(=O)CC(C)(C)C(=O)O)C(C)(C)[C@@H]5CC[C@]43C)[C@@H]12 (stereo partly drawn) [compound 9, N-[3-β-O-(3′,3′-dimethylsuccinyl)-lup-20(29)-en-28-oyl]-L-leucine] | – | – | exhibited anti-HIV-1 entry activity, albeit at higher concentrations than compound 12 | – | – | – | – | – | – | –
C=C(C)[C@@H]1CC[C@]2(C(=O)NCCCCCCCCCCC(=O)O)CC[C@]3(C)[C@H](CC[C@@H]4[C@@]5(C)CC[C@H](OC(=O)CC(C)(C)C(=O)O)C(C)(C)[C@@H]5CC[C@]43C)[C@@H]12 [compound 12, N-[3-β-O-(3′,3′-dimethylsuccinyl)-lup-20(29)-en-28-oyl]-11-aminoundecanoic acid] | sensitive | substantial antiviral activity | potent HIV-1 entry inhibitor | not affected | accumulation of P25 | sub-micromolar | very sensitive | substantial antiviral activity | sensitive | very sensitive
